Test results taken from PubChem BioAssay AID1963429 (Molecular Pharmacology Branch, DTP, NCI, 2024).

System: 126254-015-R-J1-PDC complex spheroid growth, % test/control
Assay: Anticancer human tumor 126254-015-R-J1-PDC patient-derived soft tissue sarcoma cell line growth inhibition [Asc]
Details: for IC50: curve of first compound; for viability, T/C: stronger effect = lower value; active = viability on the fitted dose curve at most 10% of control; inactive = the rest
Method in brief: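 Complex solid-tumor spheroids incorporating human endothelial and mesenchymal stem cells received single agents or combinations over half-log dilution ranges anchored to clinical Cmax.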
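Also: spheroids exposed to compound for seven days.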
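For viability, T/C in this document: 100% = DMSO vehicle control wells.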

COc1c(OCCCN2CCOCC2)ccc2c3n(c(=NC(=O)c4cnc(N)nc4)nc12)CCN3 + Cc1c(S(C)(=O)=O)c(-c2cc(F)cc(N3CCN(c4ccc(NS(=O)(=O)c5ccc(NC(CCN6CCC(C(=O)OCCCP(=O)(O)O)CC6)CSc6ccccc6)c(S(=O)(=O)C(F)(F)F)c5)cc4)CC3)c2)c(-c2ccc(Cl)cc2)n1C(C)C
inactive: viability, T/C (second compound 0.1 µM, first compound 0.00316 µM) 96.5% | viability, T/C (second compound 0.1 µM, first compound 0.01 µM) 84.5% | viability, T/C (second compound 0.1 µM, first compound 0.0316 µM) 63.5% | viability, T/C (second compound 0.1 µM, first compound 0.1 µM) 28.3% | viability, T/C (second compound 0.1 µM, first compound 0.316 µM) 16% | viability, T/C (second compound 0.316 µM, first compound 0.00316 µM) 88% | viability, T/C (second compound 0.316 µM, first compound 0.01 µM) 76.6% | viability, T/C (second compound 0.316 µM, first compound 0.0316 µM) 59.1% | viability, T/C (second compound 0.316 µM, first compound 0.1 µM) 29.7% | viability, T/C (second compound 0.316 µM, first compound 0.316 µM) 15.3% | viability, T/C (second compound 1 µM, first compound 0.00316 µM) 83.7% | viability, T/C (second compound 1 µM, first compound 0.01 µM) 75.5% | viability, T/C (second compound 1 µM, first compound 0.0316 µM) 61.9% | viability, T/C (second compound 1 µM, first compound 0.1 µM) 30.4% | viability, T/C (second compound 1 µM, first compound 0.316 µM) 14.9% | viability, T/C (second compound 3.16 µM, first compound 0.00316 µM) 77.5% | viability, T/C (second compound 3.16 µM, first compound 0.01 µM) 77.5% | viability, T/C (second compound 3.16 µM, first compound 0.0316 µM) 54.9% | viability, T/C (second compound 3.16 µM, first compound 0.1 µM) 30.1% | viability, T/C (second compound 3.16 µM, first compound 0.316 µM) 14.3% | viability, T/C (second compound 10 µM, first compound 0.00316 µM) 84.2% | viability, T/C (second compound 10 µM, first compound 0.01 µM) 87.7% | viability, T/C (second compound 10 µM, first compound 0.0316 µM) 55.6% | viability, T/C (second compound 10 µM, first compound 0.1 µM) 30.6% | viability, T/C (second compound 10 µM, first compound 0.316 µM) 15.8%
47.9 nM: IC50 (second compound 1 µM)
42 nM: IC50 (second compound 3.16 µM)
active: viability, T/C (second compound 0.1 µM, first compound 1 µM) 8.08% | viability, T/C (second compound 0.316 µM, first compound 1 µM) 8.05% | viability, T/C (second compound 1 µM, first compound 1 µM) 8.15% | viability, T/C (second compound 3.16 µM, first compound 1 µM) 8.66% | viability, T/C (second compound 10 µM, first compound 1 µM) 7.09%
43.8 nM: IC50 (second compound 0.316 µM)
45.3 nM: IC50 (second compound 10 µM)
48.5 nM: IC50 (second compound 0.1 µM)

Cc1nc(N2CCC3(CC2)COC(C)C3N)c(CO)nc1Sc1ccnc(N)c1Cl (stereo not given) + CNC(C)C(=O)NC1CN(S(=O)(=O)c2cccc(S(=O)(=O)N3CCC4CCC(C(=O)NC(c5ccccc5)c5ccccc5)N4C(=O)C(NC(=O)C(C)NC)C3)c2)CCC2CCC(C(=O)NC(c3ccccc3)c3ccccc3)N2C1=O
443 nM: IC50 (second compound 0.1 µM)
inactive: viability, T/C (second compound 0.01 µM, first compound 0.00949 µM) 93.8% | viability, T/C (second compound 0.01 µM, first compound 0.03 µM) 91.4% | viability, T/C (second compound 0.01 µM, first compound 0.0949 µM) 76.8% | viability, T/C (second compound 0.01 µM, first compound 0.3 µM) 65.9% | viability, T/C (second compound 0.01 µM, first compound 0.949 µM) 63.4% | viability, T/C (second compound 0.01 µM, first compound 3 µM) 46.8% | viability, T/C (second compound 0.0316 µM, first compound 0.00949 µM) 76% | viability, T/C (second compound 0.0316 µM, first compound 0.03 µM) 73.8% | viability, T/C (second compound 0.0316 µM, first compound 0.0949 µM) 67.9% | viability, T/C (second compound 0.0316 µM, first compound 0.3 µM) 67.5% | viability, T/C (second compound 0.0316 µM, first compound 0.949 µM) 48.4% | viability, T/C (second compound 0.0316 µM, first compound 3 µM) 42.2% | viability, T/C (second compound 0.1 µM, first compound 0.00949 µM) 72.7% | viability, T/C (second compound 0.1 µM, first compound 0.03 µM) 63% | viability, T/C (second compound 0.1 µM, first compound 0.0949 µM) 57.6% | viability, T/C (second compound 0.1 µM, first compound 0.3 µM) 52.5% | viability, T/C (second compound 0.1 µM, first compound 0.949 µM) 49.4% | viability, T/C (second compound 0.1 µM, first compound 3 µM) 35.5% | viability, T/C (second compound 0.316 µM, first compound 0.00949 µM) 57.8% | viability, T/C (second compound 0.316 µM, first compound 0.03 µM) 55.4% | viability, T/C (second compound 0.316 µM, first compound 0.0949 µM) 56.3% | viability, T/C (second compound 0.316 µM, first compound 0.3 µM) 52.1% | viability, T/C (second compound 0.316 µM, first compound 0.949 µM) 38.6% | viability, T/C (second compound 0.316 µM, first compound 3 µM) 41.9% | viability, T/C (second compound 1 µM, first compound 0.00949 µM) 57.6% | viability, T/C (second compound 1 µM, first compound 0.03 µM) 59.6% | viability, T/C (second compound 1 µM, first compound 0.0949 µM) 59.6% | viability, T/C (second compound 1 µM, first compound 0.3 µM) 44.7% | viability, T/C (second compound 1 µM, first compound 0.949 µM) 30% | viability, T/C (second compound 1 µM, first compound 3 µM) 33.5%
196 nM: IC50 (second compound 1 µM)
264 nM: IC50 (second compound 0.316 µM)
2520 nM: IC50 (second compound 0.01 µM)
893 nM: IC50 (second compound 0.0316 µM)
